According to US20180228871A1, “METHODS FOR THE MOBILIZATION AND USE OF T-CELLS WITH ENHANCED RECONSTITUTION POTENTIAL AND LIFE-SPAN” (GlycoMimetics, Inc., priority 2015, published 2018):

B1: G-CSF: granulocyte-colony stimulating factor, a glycoprotein; Example I used Filgastim (Amgen) (protein, UniProt P09919 31-207, looked up)
Granulocyte …: TPLGPASSLPQSFLLKCLEQVRKIQGDGAALQEKLVSECATYKLCHPEELVLLGHSLGIPWAPLSSCPSQALQLAGCLSQLHSGLFLYQGLLQALEGISPELGPTLDTLQLDVADFATTIWQQMEELGMAPALQPTQGAMPAFASAFQRRAGGVLVASHLQSFLEVSYRVLRHLAQP
modifications: filgrastim
B2: Filgrastim: recombinant G-CSF expressed by E. coli, 175 amino acids, 19 kD, amino terminus methionine (protein, UniProt P09919 31-207, looked up)
Granulocyte …: B1 Granulocyte …
modifications: filgrastim, N-terminal Met
B3: Pegfilgrastim: Filgrastim with pegylation (20 kD-PEG) modification on the N terminal (protein, UniProt P09919 31-207, looked up)
Granulocyte …: B1 Granulocyte …
modifications: N-terminal 20 kDa PEG; pegfilgrastim

Assays:
HSC = settings: transient administration; cited from earlier work
CD8+CD62Lhi CD44+ cells = assay: G-CSF mobilization of blood leukocytes and T-cell subsets with GMI-1271 co-administration (flow cytometry of blood); format: in vivo, mice (C57bl/6); settings: C57bl/6 mice; for CD44+CD62hi CD4+ T-cells per uL blood: G-CSF administration, with or without GMI-1271 co-administration, FIG. 4B
Experimental: The following classification was used in the following experiments. Of all the CD8+ cells the Tnaive, population is CD62hi […]; the TCM/SCM population is CD62hi CD44+; and the TEM population is CD44+CD62^− population. An increase in the TCM/SCM mouse cell population is observed below (see FIGS. 1 through 6).
Cohorts of mice (C57bl/6 adult 10 week old males) were administered G-CSF (Filgastim, Amgen) at 125ug/kg/injection bidaily subcutaneous injections for a total of 72 hours before sacrifice (with non-mobilised control group #1 receiving saline injection instead).
The E-selectin mimetic antagonist GMI-1271 (bidaily intraperitoneal injections at 40 mg/kg/injection), was co-administered to these mice at specified timepoints prior to sacrifice with a final GMI-1271 injection always occurring exactly 1 hour prior to sacrifice. Generally all mice received injections at 9 am and 6 pm every day with n=4 per group. The injection groups are outlined in FIG. 1 and are detailed below.
The mouse groups were: Group 1. non-mobilised control, Group 2. G-CSF alone control, Group 3. 14 hours GMI-1271, Group 4. 24 hours GMI-1271, Group 5. 48 hours GMI-1271, Group 6. 72 hours GMI-1271
After 3 days (72 hours) G-CSF administration mice were euthanised administration and heparinised blood collected by cardiac puncture. Total blood leukocytes counts were enumerated using an automated haematological cell counter (Beckman-Coulter KX-21), For flow cytometry, red cells were first lysed using ammonium lysis then blood leukocytes washed in phosphate buffered saline (PBS) containing 2% fetal calf serum and incubated on ice in the presence of excess FcBlock (CD16/CD32 hybridoma 2.4G2 supernatant to block endogenous Fc receptors) following the methodology in Winkler et al., Nature Medicine 2012. Cells were stained using the antibodies CD4-pacific blue, CD8-peCY7, CD62L-BV605, CD44-AF700 at a final concentration of approx 5 million leukocytes per 100 uL volume containing 0.5 ug of each of the above conjugated monoclonal antibodies. All conjugated antibodies were purchased from Biolegend, CA. After 40 minutes incubation on ice, cells were washed to remove excess antibody (by addition of 1 mL PBS, centrifugation at 370×g for 5 minutes at 4 C, removal of supernatant and resuspension of pellet in 100 uL PBS with 2% fetal calf serum). Flow cytometry of cells was performed on the 8 colour CYAN (Beckman Coulter) using unstained blood and single colour controls to set voltages and gating strategy.
CD8+ Tcell subsets were divided based on CD62 and CD44 staining. With CD8+ naive T cells being CD62hi CD44−, CD8+T CM/SCM cells being CD62hi CD44+ double positive and TEM being CD44+ and CD62 negative following routine methodology.
Data was later analysed using the Flow Jo software and collated in excel software. Figures and statistics were by ANOVA using prism software.

HSCs = settings: E-selectin inhibition during HSC mobilization with G-CSF; cited from earlier work
CCR7+ cells = assay: Mobilization of CCR7 cells by G-CSF and GMI-1271: PBMC counts and marker-positive cells by flow cytometry; format: in vivo, Mouse; settings: for CCR7 Cells/mL(10^5): IP qdX3, blood PBMC
Experimental: (§1) 1) Test Animals: • 1. Species: Mouse • 2. Strain: Balb/C and C57BV6 • 3. Age and gender 7-9 weeks, Female • 4. Source: Harlan Laboratories • 5. Total number: 25
(§2) G-CSF and GM-1271 in powder form. The test agents were reconstituted with saline 600 μg of G-CSF was dissolved in 6.5 mL of sterile saline giving a concentration of 92.307 μg/mL. Animals were administered with 0.1 mL of dose solution per time point giving the dose concentration for G-CSF was 9.23 μg per mouse per time point.
(§3) 70 mg of GM-1271 was reconstituted with 7 mL of sterile saline giving a concentration of 10 mg/mL. Animals were administered with 0.1 mL of dose solution per time point giving the dose concentration for GM-1271 was 1 mg per mouse per time point.
(§4) • To purify PBMCs, red blood cells (RBCs) in the whole blood were lysed using ACK Lysing Buffer (Life Technologies, A1049201). Whole blood was mixed with ACK Lysing Buffer at a 1: 25 ratio and incubated at room temperature on shaker for 5 min. The cells were centrifuged at 350 g for 7 min and the supernatant was discarded. The purified PBMCs were suspended in PBS containing 2% FBS. Cell counts were performed, pelleted at 250×g for 10 minutes and suspended in 5 ml HBSS containing containing Ca2+ and Mg2+(Life Technologies catalog #14025-092) plus 0.05% bovine serum albumin (BSA) to […] for antibody staining.
(§5) • Add 100 ul cells (2-3×10^5 cells) per tube (5 mL polypropylene round-bottom tubes (BD Falcon tubes #352063, VWR catalog #60819-728). Add indicated amounts of Alexa Fluor 488® labeled antibodies as indicated in Table 3 and immediately place on ice. • Place tubes at 4° C. for 1 hour then add 2 mL cold HBSS/BSA to each tube and pellet cells 250×g for 10 minutes. Pour off supernatant and suspend the cell pellet in 1 mL cold HBSS/BSA. Pellet cells 250×g for 10 minutes, pour off supernatant, and suspend cell pellet in 250 microliters HBSS/BSA. Add 250 microliters 2% formaldehyde (Polysciences, Inc. catalog #04018, 10% ultrapure, EM grade, methanol-free). Proceed to flow cytometry.
(§6) • Fluorescence was acquired via blue laser excitation at 488 nm with emission at 530 nm using preset lasers equipped on the Attune@ NxT Accoustic Focusing Cytometer (Life Technologies). 2×104 events were collected for each sample and analyzed with the use of the Attune® NxT Cytometric Software v2.1. Results were recorded as median fluorescent intensity, % cells positive for a given marker, and as cell concentration of expressing the specific marker per mL.
(§7) These experiments were done in both Balb/c (top table) and BL6 (bottom table) mouse strains.

[1] = as above; format: in vivo, Mouse; settings: IP qdX3, blood PBMC
Experimental: as §1, §2, §3, §4, §5, §6, §7

[2] = in vivo; cited from earlier work

Molecule | CD44+CD62hi CD4+ T-cells per uL blood (CD8+CD62Lhi CD44+ cells) | CCR7 Cells/mL(10^5) (CCR7+ cells; BL6 mice (bottom table)) | CCR7 Cells/mL(10^5) (CCR7+ cells; Balb/c mice (top table)) | CD4 Cells/mL(10^5) ([1]; BL6 mice (bottom table)) | CD8 Cells/mL(10^5) ([1]; BL6 mice (bottom table)) | CD44 Cells/mL(10^5) ([1]; BL6 mice (bottom table)) | CD62L Cells/mL(10^5) ([1]; BL6 mice (bottom table)) | Total cells/mL (10^6 + SD) ([1]; BL6 mice (bottom table)) | CD4 Cells/mL(10^5) ([1]; Balb/c mice (top table)) | CD8 Cells/mL(10^5) ([1]; Balb/c mice (top table)) | CD44 Cells/mL(10^5) ([1]; Balb/c mice (top table)) | CD62L Cells/mL(10^5) ([1]; Balb/c mice (top table)) | Total cells/mL (10^6 + SD) ([1]; Balb/c mice (top table)) | half-life [2] | also measured
C[C@@H]1O[C@@H](O[C@@H]2[C@@H](NC(=O)c3cc(=O)[nH]c(=O)[nH]3)C[C@@H](C(=O)NCCNC(=O)COCCOCC(=O)Nc3cc(S(=O)(=O)O)cc4cc(S(=O)(=O)O)cc(S(=O)(=O)O)c34)C[C@H]2O[C@@H]2O[C@H](CO)[C@H](O)[C@H](O[C@@H](CC3CCCCC3)C(=O)O)[C@H]2OC(=O)c2ccccc2)[C@@H](O)[C@H](O)[C@@H]1O [GMI-1070] | – | – | – | – | – | – | – | – | – | – | – | – | – | – | HSC self-renewal (HSC): promotes HSC self-renewal
CC[C@H]1C[C@@H](C(=O)NCCNC(=O)CCOCCOCCOCCOCCOCCOCCOCCOCCOCCOCCOCCOC)C[C@@H](O[C@@H]2O[C@H](CO)[C@H](O)[C@H](O[C@@H](CC3CCCCC3)C(=O)[O-])[C@H]2NC(C)=O)[C@@H]1O[C@@H]1O[C@@H](C)[C@@H](O)[C@@H](O)[C@@H]1O.[Na+] [GMI-1271] | does not appear to boost their numbers in blood | 0.23 10^5 cells/mL | 1.68 10^5 cells/mL | 0.43 10^5 cells/mL | 1.74 10^5 cells/mL | 3.56 10^5 cells/mL | 0.19 10^5 cells/mL | 1.89 ± 0.40 10^6 cells/mL | 1.56 10^5 cells/mL | 0.49 10^5 cells/mL | 4.76 10^5 cells/mL | 0.74 10^5 cells/mL | 1.01 ± 0.46 10^6 cells/mL | – | Total leukocytes per uL blood, increase over G-CSF 3 days alone (CD8+CD62Lhi CD44+ cells; 24 hr administration of GMI-1271 with 72 h G-CSF, FIG. 2): ~1.5 fold; CD44+CD62hi CD8+ Tcells per uL blood (CD8+CD62Lhi CD44+ cells; 24 hrs GMI-1271 co-administration with G-CSF, FIG. 5B): significantly increased; CD4+ Tcells per uL blood (CD8+CD62Lhi CD44+ cells; G-CSF with GMI-1271 co-administration, FIG. 4A): no change; CD8+ Tcells per uL blood (CD8+CD62Lhi CD44+ cells; G-CSF with GMI-1271 co-administration, FIG. 5A): no changes; Total T-cells per uL blood (CD4+ and CD8+ combined) (CD8+CD62Lhi CD44+ cells; GMI-1271 co-administration with G-CSF, FIG. 3): No change; reconstitution potential of mobilized HSCs (HSCs): ~25 fold; mobilization of CCR7+ cells (CCR7+ cells; addition of GMI-1271 to G-CSF, both Balb/c and BL6 strains): increases the mobilization of CCR7+ cells
B1 | appear to be decreased | 0.60 10^5 cells/mL | 4.00 10^5 cells/mL | 1.10 10^5 cells/mL | 10.00 10^5 cells/mL | 12.65 10^5 cells/mL | 0.09 10^5 cells/mL | 5.98 ± 2.25 10^6 cells/mL | 3.43 10^5 cells/mL | 1.32 10^5 cells/mL | 14.88 10^5 cells/mL | 1.59 10^5 cells/mL | 2.67 ± 0.64 10^6 cells/mL | – | –
B2 | – | – | – | – | – | – | – | – | – | – | – | – | – | 3.5 h | –
B3 | – | – | – | – | – | – | – | – | – | – | – | – | – | 15 to 80 h | –
